Data published in patent publication US20250188030A1, “Biphenyl and Phenylpyridine Compounds” (Pfizer Inc., priority 2023, published 2025).

Columns and labels:
H3K9AC (HT1080 cells) = test: H3K9AC Sandwich ELISA Assay in HT1080 cells (KAT2A primary cell-based screening assay); design: species or system Human
Experimental: Human fibrosarcoma cell line HT1080 was obtained from American Type Culture Collection (ATCC), Manassas, VA USA, Cat. HT-1080 (ATCC® CCL-121™). Cells were cultured in MEM (Thermo Fisher Scientific/Gibco Life Technologies Cat. #11-095-080) plus 10% (v/v) FBS (Thermo Fisher Scientific/Gibco Life Technologies Cat. #26140-079) and 1% Penicillin-Streptomycin (Thermo Fisher Scientific/Gibco Life Technologies Cat. #15070063) at 37° C. in 5% CO2.
HT1080 cells were trypsinized, cell viability count performed, and cells suspended in complete media at 100,000 cells/ml. Cells were seeded (100 μl/well) into Greiner Bio-One CELLSTAR 96-well polystyrene flat bottom cell culture microplate (Thermo Fisher Scientific Cat. #07-000-162) at a density of 10,000 cells/well. Cells were incubated for 16 hours at 37° C. at 5% CO2. Compound dilution plates were prepared in 96-well, clear U-bottom, polypropylene plates (Corning 3365) in 100% DMSO at 10 mM stock concentration in duplicate, using 10-point serial dilution (1:3). Compounds were diluted to 1:200 in growth medium and 25 μl from intermediate compound plates were added to each well of the cell plates using a Beckman FX liquid handling system such that the highest compound concentration tested was 10 μM final, with a 0.1% final DMSO concentration in the total volume of 125 μl. Plates were incubated for 24 hours at 37° C. and 5% CO2. Plates were centrifuged at 2500 rpm for 5 minutes and medium was removed. 100 μL 0.4N HCL (Thermo Fisher Scientific Cat #SA56-1) was added to each well and plates were shaken for 60 minutes at 4C to lyse cells. 38ul 0.4N Sodium phosphase dibasic pH12.5 (Thermo Fisher Scientific Cat #S375-212) containing 2 mM Sodium Butyrate (Millipore TR1008G) and 3 mM Phenylmethanesulfonyl-fluoride (Sigma 93482) was added to each well to neutralize lysates.
Cell lysate plates were mixed for 5 minutes at room temperature on shaker and immediately frozen at −80C overnight. Cell lysates were thawed and 50 μL/well was transferred to ELISA plates (Total Histone H3 mouse (Cell Signaling Technology Cat #14269) mAb-coated Corning 1×8 strip-well, white, 96-well plates (Corning 2485)). After 2 hours room temperature incubation, plates were washed six times with PBS/0.05% Tween Wash Buffer using a BioTek plate washer. 50 μL of Histone H3K9AC rabbit detection mAb (Cell Signaling Technology Cat #9649S) diluted 1:1000 in blocking buffer (Thermo Fisher Scientific Cat #37542) was added to each well and incubated for 2 hours at room temperature. After washing, 50 μL anti-rabbit IgG, HRP-Linked antibody (Cell Signaling Technology Cat #7074) diluted 1:1000 in blocking buffer was added to each well and incubated for 60 minutes at room temperature. Following incubation, plates were washed as described above. 50 μL of luminescent GLO substrate reagent (R&D System Cat #DY993) was added to each well and incubated for 10 minutes at room temperature. Plates were read on the PHERAstar plate reader using the 96-well with Luminescent reading mode. IC50 values were calculated using a four-parameter fit with GraphPad Prism version 9.5.1 or in-house modified IDBS ActivityBase data analyzing package.

KAT2A = KAT2A (Homo sapiens (Human), UniProt Q92830); test: KAT2A acetyltransferase biochemical assay (RapidFire mass spectrometry, AcCoA to CoA); details: read-out: KAT2A Ki at 1 μM AcCoA, 5 μM H3 1-21 peptide, 0.5 nM KAT2A, 90-minute reaction
Sequence of KAT2A (Q92830 whole entry): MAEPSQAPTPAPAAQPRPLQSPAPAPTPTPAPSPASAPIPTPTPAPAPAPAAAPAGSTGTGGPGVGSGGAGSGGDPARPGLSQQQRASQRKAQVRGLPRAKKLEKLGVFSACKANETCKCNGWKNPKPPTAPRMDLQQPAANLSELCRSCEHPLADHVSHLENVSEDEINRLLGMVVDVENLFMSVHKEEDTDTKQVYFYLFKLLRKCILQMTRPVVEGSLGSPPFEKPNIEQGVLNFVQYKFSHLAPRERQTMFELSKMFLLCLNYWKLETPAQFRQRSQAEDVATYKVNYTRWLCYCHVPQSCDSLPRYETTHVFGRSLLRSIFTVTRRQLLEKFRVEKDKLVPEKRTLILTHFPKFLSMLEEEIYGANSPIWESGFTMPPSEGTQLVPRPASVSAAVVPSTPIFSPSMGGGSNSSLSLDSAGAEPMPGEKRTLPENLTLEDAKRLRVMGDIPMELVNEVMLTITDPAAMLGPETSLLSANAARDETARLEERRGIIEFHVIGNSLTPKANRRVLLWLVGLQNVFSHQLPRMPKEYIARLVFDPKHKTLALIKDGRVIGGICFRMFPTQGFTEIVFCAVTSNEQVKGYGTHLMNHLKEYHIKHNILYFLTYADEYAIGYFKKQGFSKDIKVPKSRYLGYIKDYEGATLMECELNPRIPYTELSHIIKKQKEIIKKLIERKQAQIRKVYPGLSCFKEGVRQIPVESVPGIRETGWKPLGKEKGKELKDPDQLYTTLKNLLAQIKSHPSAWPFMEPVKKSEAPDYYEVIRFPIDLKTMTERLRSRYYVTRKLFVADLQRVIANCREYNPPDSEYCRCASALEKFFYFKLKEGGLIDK
Experimental: • A) Compound preparation • 1) Prepare 10 mM stock solutions in 100% DMSO from solid material. • 2) Serial dilute 10 mM, 1 mM, 0.1 or 0.01 mM compound stocks 3-fold in 100% DMSO for 11-point dose response. • B) Reagent preparation • 1) Prepare 1×assay buffer containing 40 mM bis tris propane pH 8.0, 10 mM NaCl, 0.5 mM EDTA, and 0.002% Tween-20. • 2) Dilute Histone peptide (CPC Scientific) and KAT enzyme together in assay buffer to 1.25×. • 3) Dilute AcCoA (Sigma) in assay buffer to 5×. • C) Enzyme reaction • 1) Final reaction conditions for each KAT assay in a 100ul assay reaction volume: • i) KAT2A 0.5 nM, 1 uM AcCoA, 5 uM H3 1-21 peptide, 90-minute reaction • ii) KAT2B 0.5 nM, 1 uM AcCoA, 5 uM H3 1-21 peptide, 90-minute reaction • 2) Add 2 ul of diluted compound series to the assay plate (96-well round-bottom polypropylene plates) or 2 ul of DMSO for control wells. • 3) Add 11 μL of 10% formic acid to 100% effect (HPE) control wells. • 4) Add 80 ul of 1.25× Histone peptide/KAT mix to the assay plate via Multidrop Combi (ThermoFisher). Incubate 15 min at room temperature. • 5) Add 20 ul of 5× AcCoA to the assay plate via Multidrop Combi. • 6) Stop the reaction after the indicated time with the addition of 11 ul of 10% formic acid via Multidrop Combi. • 7) Each reaction was analyzed using Rapid Fire mass spectrometry platform.
KAT enzymes were expressed using a baculovirus expression system and purified at Pfizer, La Jolla. […] Acetyl coenzyme A was purchased from Sigma-Aldrich (St. Louis, MO). All other biochemical reagents were purchased from Sigma-Aldrich or ThermoFisher Scientific (Waltham, MA).
KAT assays were performed at room temperature in assay buffer containing 1 μM AcCoA, 5 μM histone peptide, 40 mM bis tris propane pH 8.0, 10 mM NaCl, 0.5 mM EDTA 0.002% Tween-20. 80 ul of 1.25× Histone peptide/enzyme mix was added to a 96-well round-bottom polypropylene assay plate containing 2 ul of serially diluted test compound in 100% dimethyl sulfoxide (DMSO). To start the reaction, 20 ul of 5× AcCoA solution was added to the assay plate. KAT assays were terminated after 90 minutes with the addition of 11 ul of 10% formic acid. All assays used histone H3 (1-21) peptide. The final enzyme concentration for each KAT was as follows: KAT2A, 0.5 nM; KAT2B, 0.5 nM. […] Each reaction was analyzed using Rapid Fire mass spectrometry platform. This methodology leverages an Agilent 6495 triple quadrupole (QQQ) mass spectrometer coupled to a RapidFire model 365 to specifically capture and measure KAT2 acetyltransferase activity, converting AcCoA (substrate) to CoA (product).
Area under the curve (AUC) for both substrate and product peaks was determined for KAT2 at M.W. 809.6 [Substrate+H]+ and 767.3 [Product+H]+ with a +/−1 Da tolerance, respectively. Acetyltransferase activity (% of DMSO control) was calculated by: ((AUCProduct/AUCsubstrate)-AUCHPE)/(AUCZPE-AUCHPE))*100. Ki values were determined by fitting the % acetyltransferase activity at each inhibitor concentration to the Morrison equation for tightbinding competitive inhibitors using Pfizer proprietary curve fitting software.
To determine the inhibition of KAT enzymatic activity by test compounds, assay reactions were conducted in a volume of 100 μL in 96-well round-bottom polypropylene assay plate. The reactions were performed in assay buffer (40 mM bis tris propane, pH 8, 10 mM NaCl, 0.5 mM EDTA, 0.002% Tween-20).

[1] = Homo sapiens, HT-1080, H3K9AC sandwich ELISA

| Compound | IC50 (H3K9AC (HT1080 cells); [1]) [nM] | Ki (KAT2A) [nM] | IC50 (H3K9AC (HT1080 cells); H3K9AC sandwich ELISA) [nM] |
| --- | --- | --- | --- |
| C[C@@H](C(=O)NS(C)(=O)=O)c1ccc(OC[C@H]2C[C@H](NC(=O)[C@@H]3CC(C)(C)CN3C)C2)c(-c2cccc(F)c2C2CCC2)c1 (single isomer, unassigned) [Example G4] | 30.4 | 1.3 |  |
| CC(C)(C(=O)O)c1ccc(O[C@@H]2CC[C@@H](NC(=O)[C@@]3(F)CNCC4(CCC4)C3)C2)c(-c2cccc(F)c2C2CCC2)c1 (single isomer, unassigned) [Example A28] |  | 1.41 | 53.6 |
| CN1CC(C)(C)C[C@H]1C(=O)N[C@@H]1CC[C@@H](Oc2cccc(CC(=O)NS(C)(=O)=O)c2-c2ccccc2C2CCC2)C1 (atropisomer, axis not shown) [Example I3, N-[(1R,3R)-3-{[(1ψ)-2′-cyclobutyl-6-{2-[(methanesulfonyl)amino]-2-oxoethyl}[1,1′-biphenyl]-2-yl]oxy}cyclopentyl]-1,4,4-trimethyl-L-prolinamide] |  | 1430 | > 6680 |
| CCc1c(F)cccc1-c1cc([C@@H](C)C(=O)NS(=O)(=O)C2(C)CC2)ccc1O[C@@H]1CC[C@@H](NC(=O)[C@@]2(F)CNC3(CCC3)C2)C1 (single isomer, unassigned) [Example C82] |  | 0.07 | 8.7 |
| CC1(C)C[C@@](F)(C(=O)N[C@@H]2CC[C@@H](Oc3ccc(C(C)(C)C(=O)O)cc3-c3cccc(F)c3C3CCC3)C2)CN1 (single isomer, unassigned) [Example A3] | > 10000 | 1440 |  |
| CCS(=O)(=O)NC(=O)[C@H](C)c1ccc(O[C@@H]2CC[C@@H](NC(=O)[C@@]3(F)CNC4(CCC4)C3)C2)c(-c2ccccc2C(C)C)c1 (single isomer, unassigned) [Example C88] | 10.3 | 0.21 |  |
| CCc1c(F)cccc1-c1cc(C(C)(C)C(=O)NS(=O)(=O)C2(C)CC2)ccc1O[C@@H]1CC[C@@H](NC(=O)[C@@]2(F)CNC3(CCC3)C2)C1 [Example C23, (7S)-N-[(1R,3R)-3-({2′-ethyl-3′-fluoro-5-[2-methyl-1-(1-methylcyclopropane-1-sulfonamido)-1-oxopropan-2-yl][1,1′-biphenyl]-2-yl}oxy)cyclopentyl]-7-fluoro-5-azaspiro[3.4]octane-7-carboxamide] | 91.8 | 6.57 |  |
| CCc1c(F)cccc1-c1cc(CC(=O)NS(=O)(=O)C(C)C)ccc1O[C@@H]1CC[C@@H](NC(=O)[C@@]2(F)CNC3(CCCC3)C2)C1 (single isomer, unassigned) [Example C73] |  | 0.05 | 4.8 |
| CC(C)(C(=O)NS(=O)(=O)N1CC(F)(F)C1)c1ccc(O[C@@H]2CC[C@@H](NC(=O)[C@]3(F)CNC4(CCC4)C3)C2)c(-c2cccc(F)c2C2CCC2)c1 (single isomer, unassigned) [Example B10] | 15.7 | 0.15 |  |
| CCS(=O)(=O)NC(=O)Cc1ccc(O[C@@H]2CC[C@@H](NC(=O)[C@@]3(F)CNC4(CCC4)C3)C2)c(-c2cccc(F)c2C2CCC2)c1 (single isomer, unassigned) [Example C32] | 40.8 | 4.51 |  |
| CCS(=O)(=O)NC(=O)C(C)c1ccc(O[C@@H]2CC[C@@H](NC(=O)[C@@]3(F)CNC4(CCC4)C3)C2)c(-c2ccccc2C(C)C)c1 (single isomer, unassigned) [Example C89] |  | 0.16 | 6.5 |
| CC1(C)CNC[C@](F)(C(=O)N[C@@H]2CC[C@@H](Oc3ccc(C(=O)O)cc3-c3cccc(F)c3C3CCC3)C2)C1 (single isomer, unassigned) [Example A37] |  | 0.02 | > 1000 |
| O=C(O)c1ccc(O[C@@H]2CC[C@@H](NC(=O)[C@@]3(F)CNC4(CCC4)C3)C2)c(-c2cccc(F)c2C2CCC2)c1 [Example A29, 2′-cyclobutyl-3′-fluoro-6-{[(1R,3R)-3-{[(7S)-7-fluoro-5-azaspiro[3.4]octane-7-carbonyl]amino}cyclopentyl]oxy}[1,1′-biphenyl]-3-carboxylic acid] | > 1000 | 0.11 |  |
| Cn1cc(-c2ccc(O[C@@H]3CC[C@@H](NC(=O)[C@]4(F)CNC5(CCC5)C4)C3)c(-c3cccc(F)c3C3CCC3)c2)c(C(=O)O)n1 (single isomer, unassigned) [Example J9] |  | 2.16 | 4300 |
| CN1C[C@@](F)(C(=O)N[C@@H]2CC[C@@H](Oc3ccc(C(C)(C)C(=O)NS(C)(=O)=O)cc3-c3cccc(F)c3C3CCC3)C2)CC1(C)C (single isomer, unassigned) [Example B8] | > 1000 | 716 |  |
| CN1CC(C)(C)CC1C(=O)N[C@H]1C[C@H](COc2ccc(CC(=O)NS(C)(=O)=O)cc2-c2cccc(F)c2C2CCC2)C1 (stereo partly drawn) [Example G1, N-[(1r,3S)-3-{[(2′-cyclobutyl-3′-fluoro-5-{2-[(methanesulfonyl)amino]-2-oxoethyl}[1,1′-biphenyl]-2-yl)oxy]methyl}cyclobutyl]-1,4,4-trimethyl-L-prolinamide] | 55.2 | 2.55 |  |
| CN(C)S(=O)(=O)NC(=O)c1cccc(O[C@@H]2CC[C@@H](NC(=O)[C@@]3(F)CNC4(CCC4)C3)C2)c1-c1cccc(F)c1C1CCC1 [Example I20, (7S)-N-[(1R,3R)-3-({(1ψ)-2′-cyclobutyl-6-[(dimethylsulfamoyl)carbamoyl]-3′-fluoro[1,1′-biphenyl]-2-yl}oxy)cyclopentyl]-7-fluoro-5-azaspiro[3.4]octane-7-carboxamide] |  | 26.3 | 51.9 |
| CN1CC(C)(C)C[C@H]1C(=O)N[C@@H]1CC[C@@H](Oc2ccc(-c3nn(C)cc3CC(=O)O)cc2-c2cccc(F)c2C2CCC2)C1 [Example J8, {3-[2′-cyclobutyl-3′-fluoro-6-({(1R,3R)-3-[(1,4,4-trimethyl-L-prolyl)amino]cyclopentyl}oxy)[1,1′-biphenyl]-3-yl]-1-methyl-1H-pyrazol-4-yl}acetic acid] | 2.71 | 0.74 |  |
| CN(C)S(=O)(=O)NC(=O)Cc1cccc(O[C@@H]2CC[C@@H](NC(=O)[C@@]3(F)CNC4(CCC4)C3)C2)c1-c1cccc(F)c1C1CCC1 (atropisomer, axis not shown) [Example I15, (7S)-N-[(1R,3R)-3-({(1ψ)-2′-cyclobutyl-6-[2-(dimethylsulfamamido)-2-oxoethyl]-3′-fluoro[1,1′-biphenyl]-2-yl}oxy)cyclopentyl]-7-fluoro-5-azaspiro[3.4]octane-7-carboxamide] |  | > 99.9 | > 1000 |
| CCS(=O)(=O)NC(=O)Cc1ccc(O[C@@H]2CC[C@@H](NC(=O)[C@@]3(F)CNC4(CCCC4)C3)C2)c(-c2cccc(F)c2C2CCC2)c1 (single isomer, unassigned) [Example C71] |  | 0.01 | 1 |
| CCS(=O)(=O)NC(=O)C(C)c1ccc(O[C@@H]2CC[C@@H](NC(=O)[C@@]3(F)CNC4(CCC4)C3)C2)c(-c2cccc(F)c2C2CCC2)c1 (single isomer, unassigned) [Example C90] | 3.3 | 0.05 |  |
| CC1(C)CNC[C@](F)(C(=O)N[C@@H]2CC[C@@H](Oc3ccc(CC(=O)NS(=O)(=O)C4(C)CC4)cc3-c3cccc(F)c3C3CCC3)C2)C1 (single isomer, unassigned) [Example C79] |  | 0.06 | 3.6 |
| CC(C)n1cc(-c2ccc(O[C@@H]3CC[C@@H](NC(=O)[C@@]4(F)CNC5(CCC5)C4)C3)c(-c3cccc(F)c3C3CCC3)c2)c(C(=O)O)n1 (single isomer, unassigned) [Example J15] |  | 27.3 | 451 |
| O=C(O)c1nn(C2CC2)cc1-c1ccc(O[C@@H]2CC[C@@H](NC(=O)[C@@]3(F)CNC4(CCC4)C3)C2)c(-c2cccc(F)c2C2CCC2)c1 (single isomer, unassigned) [Example J11] |  | 0.08 | 8.85 |
